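Step 1: Grow cells in 96-well plates. Step 2: Expose to compound for 48 hours at 5 concentrations. Step 3: Interpolate endpoints linearly; if unreached, use highest concentration. GI50: concentration for 50% inhibition of growth. TGI is the concentration that stops growth completely.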
Columns and labels:
Assay in all cases: DTP human tumour cell line panel, 48 h
786-0 renal = test system: 786-0 renal
A498 renal = test system: A498 renal
A549 NSCLC = test system: A549 NSCLC
ACHN renal = test system: ACHN renal
BT-549 breast = test system: BT-549 breast
CAKI-1 renal = test system: CAKI-1 renal
CCRF-CEM leukemia = test system: CCRF-CEM leukemia
DU-145 prostate = test system: DU-145 prostate
EKVX NSCLC = test system: EKVX NSCLC
HCC-2998 colon = test system: HCC-2998 colon
HCT-116 colon = test system: HCT-116 colon
HCT-15 colon = test system: HCT-15 colon
HL-60(TB) leukemia = test system: HL-60(TB) leukemia
HOP-62 NSCLC = test system: HOP-62 NSCLC
HOP-92 NSCLC = test system: HOP-92 NSCLC
HS 578T breast = test system: HS 578T breast
HT29 colon = test system: HT29 colon
IGROV1 ovarian = test system: IGROV1 ovarian
K-562 leukemia = test system: K-562 leukemia
KM12 colon = test system: KM12 colon
LOX IMVI melanoma = test system: LOX IMVI melanoma
M14 melanoma = test system: M14 melanoma
MALME-3M melanoma = test system: MALME-3M melanoma
MCF7 breast = test system: MCF7 breast
MDA-MB-231 breast = test system: MDA-MB-231 breast
MDA-MB-435 = test system: MDA-MB-435
MDA-MB-468 breast = test system: MDA-MB-468 breast
MOLT-4 leukemia = test system: MOLT-4 leukemia
NCI-H226 lung = test system: NCI-H226 lung
NCI-H23 lung = test system: NCI-H23 lung
NCI-H460 lung = test system: NCI-H460 lung
NCI-H522 lung = test system: NCI-H522 lung
NCI/ADR-RES ovarian = test system: NCI/ADR-RES ovarian
OVCAR-3 ovarian = test system: OVCAR-3 ovarian
OVCAR-4 ovarian = test system: OVCAR-4 ovarian
OVCAR-5 ovarian = test system: OVCAR-5 ovarian
OVCAR-8 ovarian = test system: OVCAR-8 ovarian
PC-3 prostate = test system: PC-3 prostate
RPMI-8226 leukemia = test system: RPMI-8226 leukemia
RXF 393 renal = test system: RXF 393 renal
SF-268 CNS = test system: SF-268 CNS
SF-295 CNS = test system: SF-295 CNS
SF-539 CNS = test system: SF-539 CNS
SK-MEL-2 melanoma = test system: SK-MEL-2 melanoma
SK-MEL-28 melanoma = test system: SK-MEL-28 melanoma
SK-MEL-5 melanoma = test system: SK-MEL-5 melanoma
SK-OV-3 ovarian = test system: SK-OV-3 ovarian
SN12C renal = test system: SN12C renal
SNB-19 CNS = test system: SNB-19 CNS
SNB-75 CNS = test system: SNB-75 CNS
SR leukemia = test system: SR leukemia
SW-620 colon = test system: SW-620 colon
T-47D breast = test system: T-47D breast
TK-10 renal = test system: TK-10 renal
U251 CNS = test system: U251 CNS
UACC-257 melanoma = test system: UACC-257 melanoma
UACC-62 melanoma = test system: UACC-62 melanoma
UO-31 renal = test system: UO-31 renal

`CCCS(=O)(=O)c1oc(-c2ccc(F)cc2)nc1S(=O)(=O)c1ccc(F)cc1` showed a GI50 (786-0 renal) of 1.6 µM, a TGI (786-0 renal) of 3.1 µM and a GI50 (A498 renal) of 17.2 µM. The TGI (A498 renal) was 31 µM, the GI50 (A549 NSCLC) was 13.3 µM and the TGI (A549 NSCLC) was 30.6 µM. For the same compound, the GI50 (ACHN renal) was 1.61 µM, the TGI (ACHN renal) was 2.96 µM and the GI50 (BT-549 breast) was 1.98 µM. For the same compound, the TGI (BT-549 breast) was 3.57 µM, the GI50 (CAKI-1 renal) was 1.43 µM and the TGI (CAKI-1 renal) was 2.76 µM. For the same compound, the GI50 (CCRF-CEM leukemia) was 0.298 µM, the TGI (CCRF-CEM leukemia) was 1.09 µM and the GI50 (DU-145 prostate) was 1.59 µM. For the same compound, the TGI (DU-145 prostate) was 2.96 µM, the GI50 (EKVX NSCLC) was 1.62 µM and the TGI (EKVX NSCLC) was 3.27 µM. It also gave a GI50 (HCC-2998 colon) of 4.05 µM, a TGI (HCC-2998 colon) of 15.9 µM and a GI50 (HCT-116 colon) of 1.6 µM. For the same compound, the TGI (HCT-116 colon) was 3.49 µM, the GI50 (HCT-15 colon) was 1.22 µM and the TGI (HCT-15 colon) was 2.73 µM. For the same compound, the GI50 (HL-60(TB) leukemia) was 2.17 µM, the TGI (HL-60(TB) leukemia) was > 100 µM and the GI50 (HOP-62 NSCLC) was 15.7 µM. The TGI (HOP-62 NSCLC) was 31.1 µM, the GI50 (HOP-92 NSCLC) was 1.8 µM and the TGI (HOP-92 NSCLC) was 4.08 µM. The GI50 (HS 578T breast) was 2.33 µM, the TGI (HS 578T breast) was 7.43 µM and the GI50 (HT29 colon) was 2.06 µM. It also gave a TGI (HT29 colon) of 4.9 µM, a GI50 (IGROV1 ovarian) of 1.84 µM and a TGI (IGROV1 ovarian) of 3.84 µM. For the same compound, the GI50 (K-562 leukemia) was 1.64 µM, the TGI (K-562 leukemia) was > 100 µM and the GI50 (KM12 colon) was 14.5 µM. For the same compound, the TGI (KM12 colon) was 31 µM, the GI50 (LOX IMVI melanoma) was 1.28 µM and the TGI (LOX IMVI melanoma) was 2.6 µM. It also gave a GI50 (M14 melanoma) of 1.68 µM, a TGI (M14 melanoma) of 3.56 µM and a GI50 (MALME-3M melanoma) of 1.49 µM. For the same compound, the TGI (MALME-3M melanoma) was 2.83 µM, the GI50 (MCF7 breast) was 1.3 µM and the TGI (MCF7 breast) was 3.08 µM. The GI50 (MDA-MB-231 breast) was 1.65 µM, the TGI (MDA-MB-231 breast) was 3.04 µM and the GI50 (MDA-MB-435) was 1.45 µM. It also gave a TGI (MDA-MB-435) of 2.98 µM, a GI50 (MDA-MB-468 breast) of 1.29 µM and a TGI (MDA-MB-468 breast) of 2.89 µM. For the same compound, the GI50 (MOLT-4 leukemia) was 1.14 µM, the TGI (MOLT-4 leukemia) was > 100 µM and the GI50 (NCI-H226 lung) was 13 µM. The TGI (NCI-H226 lung) was 34.8 µM, the GI50 (NCI-H23 lung) was 1.9 µM and the TGI (NCI-H23 lung) was 4.22 µM. The GI50 (NCI-H460 lung) was 4.46 µM, the TGI (NCI-H460 lung) was 19.4 µM and the GI50 (NCI-H522 lung) was 1.19 µM. For the same compound, the TGI (NCI-H522 lung) was 2.64 µM, the GI50 (NCI/ADR-RES ovarian) was 2.36 µM and the TGI (NCI/ADR-RES ovarian) was 6.35 µM. The GI50 (OVCAR-3 ovarian) was 1.35 µM, the TGI (OVCAR-3 ovarian) was 2.77 µM and the GI50 (OVCAR-4 ovarian) was 1.86 µM. The TGI (OVCAR-4 ovarian) was 4.04 µM, the GI50 (OVCAR-5 ovarian) was 3.48 µM and the TGI (OVCAR-5 ovarian) was 13.7 µM. It also gave a GI50 (OVCAR-8 ovarian) of 2.12 µM, a TGI (OVCAR-8 ovarian) of 4.99 µM and a GI50 (PC-3 prostate) of 3.51 µM. It also gave a TGI (PC-3 prostate) of 16.7 µM, a GI50 (RPMI-8226 leukemia) of 2.22 µM and a TGI (RPMI-8226 leukemia) of 7.44 µM. The GI50 (RXF 393 renal) was 1.1 µM, the TGI (RXF 393 renal) was 2.44 µM and the GI50 (SF-268 CNS) was 3.18 µM. For the same compound, the TGI (SF-268 CNS) was 14.7 µM, the GI50 (SF-295 CNS) was 12.6 µM and the TGI (SF-295 CNS) was 25.5 µM. It also gave a GI50 (SF-539 CNS) of 1.55 µM, a TGI (SF-539 CNS) of 2.89 µM and a GI50 (SK-MEL-2 melanoma) of 10.4 µM. For the same compound, the TGI (SK-MEL-2 melanoma) was 22.7 µM, the GI50 (SK-MEL-28 melanoma) was 1.74 µM and the TGI (SK-MEL-28 melanoma) was 3.17 µM. It also gave a GI50 (SK-MEL-5 melanoma) of 3.32 µM, a TGI (SK-MEL-5 melanoma) of 12 µM and a GI50 (SK-OV-3 ovarian) of 16.3 µM. It also gave a TGI (SK-OV-3 ovarian) of 30.9 µM, a GI50 (SN12C renal) of 2.62 µM and a TGI (SN12C renal) of 9.51 µM. The GI50 (SNB-19 CNS) was 15 µM, the TGI (SNB-19 CNS) was 28.2 µM and the GI50 (SNB-75 CNS) was 4.23 µM. The TGI (SNB-75 CNS) was 18.4 µM, the GI50 (SR leukemia) was 1.6 µM and the TGI (SR leukemia) was > 100 µM. The GI50 (SW-620 colon) was 0.685 µM, the TGI (SW-620 colon) was 2.17 µM and the GI50 (T-47D breast) was 1.83 µM. For the same compound, the TGI (T-47D breast) was 4.2 µM, the GI50 (TK-10 renal) was 1.88 µM and the TGI (TK-10 renal) was 3.35 µM. For the same compound, the GI50 (U251 CNS) was 16.4 µM, the TGI (U251 CNS) was 30.6 µM and the GI50 (UACC-257 melanoma) was 1.62 µM. It also gave a TGI (UACC-257 melanoma) of 3.13 µM, a GI50 (UACC-62 melanoma) of 1.68 µM and a TGI (UACC-62 melanoma) of 3.11 µM. For the same compound, the GI50 (UO-31 renal) was 1.46 µM and the TGI (UO-31 renal) was 2.78 µM.
